In article PMC9133015 (Nature Communications, 2022):
Where “and” joins values, the source holds several entries; their conditions need not be identical. Equal entries are not always repeated.

Key:
Assay in all cases: Kinase inhibitor specificity profiling (Reaction Biology Corporation)
Format in all cases: biochemical
Design in all cases: % Enzyme Activity (relative to DMSO controls): concentration or dose not given beside the values
[1] = molecular target: T1, panel of 370 protein kinases (Homo sapiens, UniProt O00311); conditions: 2 h, read-out: % Enzyme Activity (relative to DMSO controls), kinase CDC7/DBF4
T1 construct: purchased Reaction Biology Corporation (assay service)

[2] = molecular target: T2, panel of 370 protein kinases (Homo sapiens, UniProt Q8N4C8); conditions: 2 h, kinase MINK/MINK1; read-out: % Enzyme Activity (relative to DMSO controls)
T2 construct: purchased Reaction Biology Corporation (assay service)

[3] = molecular target: T3, panel of 370 protein kinases (Homo sapiens, UniProt P07332); conditions: 2 h, kinase FES/FPS; read-out: % Enzyme Activity (relative to DMSO controls)
T3 construct: purchased Reaction Biology Corporation (assay service)

[4] = molecular target: T4, panel of 370 protein kinases (Homo sapiens, UniProt P27448); conditions: 2 h, kinase MARK3; read-out: % Enzyme Activity (relative to DMSO controls)
T4 construct: purchased Reaction Biology Corporation (assay service)

[5] = molecular target: T5, panel of 370 protein kinases (Homo sapiens, UniProt Q32MK0); conditions: 2 h, kinase MYLK3; read-out: % Enzyme Activity (relative to DMSO controls)
T5 construct: purchased Reaction Biology Corporation (assay service)

[6] = molecular target: T6, panel of 370 protein kinases (Homo sapiens, UniProt Q9P1W9); conditions: 2 h, kinase PIM2; read-out: % Enzyme Activity (relative to DMSO controls)
T6 construct: purchased Reaction Biology Corporation (assay service)

[7] = molecular target: T7, panel of 370 protein kinases (Homo sapiens, UniProt P45983); conditions: kinase JNK1
T7 construct: purchased Reaction Biology Corporation (assay service)

[8] = molecular target: T8, panel of 370 protein kinases (Homo sapiens, UniProt Q05397); conditions: 2 h, kinase FAK/PTK2; read-out: % Enzyme Activity (relative to DMSO controls)
T8 construct: purchased Reaction Biology Corporation (assay service)

[9] = molecular target: T9, panel of 370 protein kinases (Homo sapiens, UniProt O95382); conditions: 2 h, kinase MEKK6; read-out: % Enzyme Activity (relative to DMSO controls)
T9 construct: purchased Reaction Biology Corporation (assay service)

[10] = molecular target: T10, panel of 370 protein kinases (Homo sapiens, UniProt Q12851); conditions: 2 h, kinase GCK/MAP4K2; read-out: % Enzyme Activity (relative to DMSO controls)
T10 construct: purchased Reaction Biology Corporation (assay service)

[11] = molecular target: T11, panel of 370 protein kinases (Homo sapiens, UniProt P14616); conditions: 2 h, kinase IRR/INSRR; read-out: % Enzyme Activity (relative to DMSO controls)
T11 construct: purchased Reaction Biology Corporation (assay service)

[12] = molecular target: T12, panel of 370 protein kinases (Homo sapiens, UniProt Q04771); conditions: 2 h, kinase ALK2/ACVR1; read-out: % Enzyme Activity (relative to DMSO controls)
T12 construct: purchased Reaction Biology Corporation (assay service)

[13] = molecular target: T13, panel of 370 protein kinases (Homo sapiens, UniProt P07948); conditions: 2 h, kinase LYN; read-out: % Enzyme Activity (relative to DMSO controls)
T13 construct: purchased Reaction Biology Corporation (assay service)

[14] = molecular target: T14, panel of 370 protein kinases (Homo sapiens, UniProt Q9H1R3); conditions: 2 h, kinase MLCK2/MYLK2; read-out: % Enzyme Activity (relative to DMSO controls)
T14 construct: purchased Reaction Biology Corporation (assay service)

[15] = molecular target: T15, panel of 370 protein kinases (Homo sapiens, UniProt Q8TD08); conditions: 2 h, kinase ERK7/MAPK15; read-out: % Enzyme Activity (relative to DMSO controls)
T15 construct: purchased Reaction Biology Corporation (assay service)

[16] = molecular target: T16, panel of 370 protein kinases (Homo sapiens, UniProt Q9H3Y6); conditions: 2 h, kinase SRMS; read-out: % Enzyme Activity (relative to DMSO controls)
T16 construct: purchased Reaction Biology Corporation (assay service)

[17] = molecular target: T17, panel of 370 protein kinases (Homo sapiens, UniProt O15146); conditions: 2 h, kinase MUSK; read-out: % Enzyme Activity (relative to DMSO controls)
T17 construct: purchased Reaction Biology Corporation (assay service)

[18] = molecular target: T18, panel of 370 protein kinases (Homo sapiens, UniProt P11309); conditions: 2 h, kinase PIM1; read-out: % Enzyme Activity (relative to DMSO controls)
T18 construct: purchased Reaction Biology Corporation (assay service)

[19] = molecular target: T19, panel of 370 protein kinases (Homo sapiens, UniProt P53779); conditions: kinase JNK3
T19 construct: purchased Reaction Biology Corporation (assay service)

[20] = molecular target: T20, panel of 370 protein kinases (Homo sapiens, UniProt Q8IU85); conditions: 2 h, kinase CAMK1d; read-out: % Enzyme Activity (relative to DMSO controls)
T20 construct: purchased Reaction Biology Corporation (assay service)

[21] = molecular target: T21, panel of 370 protein kinases (Homo sapiens, UniProt Q86UE8); conditions: 2 h, kinase TLK2; read-out: % Enzyme Activity (relative to DMSO controls)
T21 construct: purchased Reaction Biology Corporation (assay service)

T7 sequence (P45983 whole entry): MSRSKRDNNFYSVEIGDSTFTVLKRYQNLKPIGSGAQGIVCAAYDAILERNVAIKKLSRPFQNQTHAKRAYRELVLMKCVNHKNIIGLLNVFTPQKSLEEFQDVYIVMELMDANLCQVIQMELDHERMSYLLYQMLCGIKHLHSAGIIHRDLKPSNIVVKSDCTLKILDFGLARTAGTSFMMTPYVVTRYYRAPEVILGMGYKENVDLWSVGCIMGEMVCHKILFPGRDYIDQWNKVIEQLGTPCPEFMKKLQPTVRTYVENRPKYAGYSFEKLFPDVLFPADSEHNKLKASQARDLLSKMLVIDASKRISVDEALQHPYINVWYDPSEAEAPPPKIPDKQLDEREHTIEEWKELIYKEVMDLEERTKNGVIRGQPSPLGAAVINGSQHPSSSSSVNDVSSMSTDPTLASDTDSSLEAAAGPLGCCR
T19 sequence (P53779 whole entry): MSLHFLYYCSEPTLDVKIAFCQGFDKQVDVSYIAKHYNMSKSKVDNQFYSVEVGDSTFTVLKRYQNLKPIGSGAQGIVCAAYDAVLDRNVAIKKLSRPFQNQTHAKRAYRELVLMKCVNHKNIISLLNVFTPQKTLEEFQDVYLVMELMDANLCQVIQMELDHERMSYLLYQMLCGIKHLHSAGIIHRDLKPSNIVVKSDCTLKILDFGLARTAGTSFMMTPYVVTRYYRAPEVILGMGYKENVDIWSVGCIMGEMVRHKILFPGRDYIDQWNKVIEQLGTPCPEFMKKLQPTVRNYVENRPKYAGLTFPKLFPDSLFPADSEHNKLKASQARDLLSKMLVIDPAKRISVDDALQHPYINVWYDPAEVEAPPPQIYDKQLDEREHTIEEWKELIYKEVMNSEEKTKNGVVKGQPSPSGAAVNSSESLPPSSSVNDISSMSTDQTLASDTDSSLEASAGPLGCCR
T16 sequence (Q9H3Y6 whole entry): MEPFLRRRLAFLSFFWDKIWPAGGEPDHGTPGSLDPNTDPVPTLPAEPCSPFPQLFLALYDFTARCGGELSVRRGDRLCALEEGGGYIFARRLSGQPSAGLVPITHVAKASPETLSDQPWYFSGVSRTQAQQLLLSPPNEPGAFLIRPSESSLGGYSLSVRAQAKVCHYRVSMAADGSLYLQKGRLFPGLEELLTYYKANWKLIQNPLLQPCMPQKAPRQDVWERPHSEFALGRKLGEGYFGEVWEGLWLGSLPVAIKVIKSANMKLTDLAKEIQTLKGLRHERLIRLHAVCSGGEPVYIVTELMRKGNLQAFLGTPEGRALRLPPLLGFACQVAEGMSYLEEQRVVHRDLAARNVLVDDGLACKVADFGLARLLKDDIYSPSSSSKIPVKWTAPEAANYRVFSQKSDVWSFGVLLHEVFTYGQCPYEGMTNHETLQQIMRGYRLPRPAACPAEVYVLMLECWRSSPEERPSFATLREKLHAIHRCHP
T15 sequence (Q8TD08 whole entry): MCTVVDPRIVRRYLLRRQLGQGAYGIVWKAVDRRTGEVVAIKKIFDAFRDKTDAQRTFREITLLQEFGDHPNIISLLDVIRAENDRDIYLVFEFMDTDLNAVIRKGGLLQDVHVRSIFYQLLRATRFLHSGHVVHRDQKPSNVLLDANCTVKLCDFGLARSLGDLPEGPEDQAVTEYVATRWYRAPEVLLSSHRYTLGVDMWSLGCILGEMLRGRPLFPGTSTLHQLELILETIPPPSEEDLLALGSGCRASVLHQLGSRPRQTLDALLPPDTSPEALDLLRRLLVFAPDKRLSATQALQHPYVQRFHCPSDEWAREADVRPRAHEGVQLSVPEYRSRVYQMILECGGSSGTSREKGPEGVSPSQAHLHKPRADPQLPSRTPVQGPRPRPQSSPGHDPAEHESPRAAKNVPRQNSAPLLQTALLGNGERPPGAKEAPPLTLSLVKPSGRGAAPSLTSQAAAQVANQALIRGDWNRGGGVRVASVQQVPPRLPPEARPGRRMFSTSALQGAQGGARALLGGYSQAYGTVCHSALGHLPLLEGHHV
T14 sequence (Q9H1R3 whole entry): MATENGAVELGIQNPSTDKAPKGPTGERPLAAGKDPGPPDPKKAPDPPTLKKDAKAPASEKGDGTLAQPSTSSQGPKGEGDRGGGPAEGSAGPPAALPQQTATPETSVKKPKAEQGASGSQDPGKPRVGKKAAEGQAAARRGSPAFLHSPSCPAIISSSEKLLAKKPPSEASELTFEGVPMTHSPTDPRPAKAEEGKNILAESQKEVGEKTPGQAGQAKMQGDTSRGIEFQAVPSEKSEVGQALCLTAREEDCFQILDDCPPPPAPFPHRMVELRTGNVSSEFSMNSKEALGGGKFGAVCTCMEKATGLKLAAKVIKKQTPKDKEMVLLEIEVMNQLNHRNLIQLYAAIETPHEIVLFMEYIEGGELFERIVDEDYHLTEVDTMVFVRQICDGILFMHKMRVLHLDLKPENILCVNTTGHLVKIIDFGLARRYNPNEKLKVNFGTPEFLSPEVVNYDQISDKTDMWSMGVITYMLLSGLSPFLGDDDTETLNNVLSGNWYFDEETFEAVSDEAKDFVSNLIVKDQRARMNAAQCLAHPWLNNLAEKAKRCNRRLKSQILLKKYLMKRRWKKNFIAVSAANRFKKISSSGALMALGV
T17 sequence (O15146 24-869): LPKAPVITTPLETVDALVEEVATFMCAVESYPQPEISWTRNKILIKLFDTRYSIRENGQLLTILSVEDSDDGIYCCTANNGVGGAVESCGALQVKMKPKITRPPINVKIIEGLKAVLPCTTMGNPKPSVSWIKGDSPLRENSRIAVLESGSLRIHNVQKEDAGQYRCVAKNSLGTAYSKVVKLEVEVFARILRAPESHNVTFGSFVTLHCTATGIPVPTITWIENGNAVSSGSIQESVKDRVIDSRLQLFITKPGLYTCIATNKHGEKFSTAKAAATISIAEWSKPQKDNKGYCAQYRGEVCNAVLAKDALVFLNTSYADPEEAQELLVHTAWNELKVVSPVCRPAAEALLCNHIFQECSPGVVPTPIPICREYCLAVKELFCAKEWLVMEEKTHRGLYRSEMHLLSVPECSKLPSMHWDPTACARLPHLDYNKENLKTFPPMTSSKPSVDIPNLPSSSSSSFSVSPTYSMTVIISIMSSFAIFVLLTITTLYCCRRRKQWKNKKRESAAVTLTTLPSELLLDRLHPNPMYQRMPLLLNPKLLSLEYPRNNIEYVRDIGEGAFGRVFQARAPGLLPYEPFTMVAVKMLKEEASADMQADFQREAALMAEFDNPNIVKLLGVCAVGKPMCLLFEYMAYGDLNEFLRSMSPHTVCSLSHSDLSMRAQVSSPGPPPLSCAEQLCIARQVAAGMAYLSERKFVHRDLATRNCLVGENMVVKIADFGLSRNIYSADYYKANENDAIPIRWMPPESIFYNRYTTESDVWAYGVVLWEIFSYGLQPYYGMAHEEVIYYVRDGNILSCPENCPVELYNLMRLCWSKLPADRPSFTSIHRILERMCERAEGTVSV
T5 sequence (Q32MK0 whole entry): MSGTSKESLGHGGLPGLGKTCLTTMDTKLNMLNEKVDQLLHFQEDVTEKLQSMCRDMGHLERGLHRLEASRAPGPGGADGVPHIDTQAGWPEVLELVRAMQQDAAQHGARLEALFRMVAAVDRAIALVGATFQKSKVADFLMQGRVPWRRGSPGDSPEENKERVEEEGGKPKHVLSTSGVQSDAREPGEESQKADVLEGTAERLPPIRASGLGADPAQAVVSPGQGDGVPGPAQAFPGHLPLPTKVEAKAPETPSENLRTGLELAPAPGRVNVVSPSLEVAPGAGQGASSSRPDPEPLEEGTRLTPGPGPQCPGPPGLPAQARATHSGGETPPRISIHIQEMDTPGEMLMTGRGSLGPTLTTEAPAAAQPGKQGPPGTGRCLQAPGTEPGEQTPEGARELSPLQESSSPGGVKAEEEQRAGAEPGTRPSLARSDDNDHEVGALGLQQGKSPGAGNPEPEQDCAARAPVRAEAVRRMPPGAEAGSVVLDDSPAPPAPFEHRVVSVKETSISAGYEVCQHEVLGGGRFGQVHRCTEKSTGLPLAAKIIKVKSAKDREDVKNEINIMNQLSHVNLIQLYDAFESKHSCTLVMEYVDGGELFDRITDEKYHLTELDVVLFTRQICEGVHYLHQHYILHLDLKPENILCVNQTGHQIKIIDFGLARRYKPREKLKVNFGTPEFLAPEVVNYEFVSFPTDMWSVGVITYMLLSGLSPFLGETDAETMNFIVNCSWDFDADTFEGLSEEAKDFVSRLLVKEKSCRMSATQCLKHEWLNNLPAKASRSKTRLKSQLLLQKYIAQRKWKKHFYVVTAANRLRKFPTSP
T1 sequence (O00311 whole entry): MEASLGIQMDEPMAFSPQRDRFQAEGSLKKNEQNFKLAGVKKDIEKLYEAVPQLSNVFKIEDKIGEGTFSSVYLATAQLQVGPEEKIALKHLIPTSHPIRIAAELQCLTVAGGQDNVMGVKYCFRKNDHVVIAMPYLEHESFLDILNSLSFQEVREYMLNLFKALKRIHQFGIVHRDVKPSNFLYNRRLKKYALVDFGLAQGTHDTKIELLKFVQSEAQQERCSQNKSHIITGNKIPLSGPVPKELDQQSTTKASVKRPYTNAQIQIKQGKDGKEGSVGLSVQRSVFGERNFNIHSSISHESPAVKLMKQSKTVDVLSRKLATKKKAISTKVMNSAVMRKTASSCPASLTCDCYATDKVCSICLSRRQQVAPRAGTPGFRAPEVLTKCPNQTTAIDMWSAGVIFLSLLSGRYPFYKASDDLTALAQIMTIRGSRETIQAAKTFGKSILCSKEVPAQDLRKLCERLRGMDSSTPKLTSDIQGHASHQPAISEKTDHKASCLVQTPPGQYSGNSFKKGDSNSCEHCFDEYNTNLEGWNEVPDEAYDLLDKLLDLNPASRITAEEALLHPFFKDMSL

SMILES: CCN1CCN(C(=O)c2ccc(Nc3ncc(F)c(-c4ccc5nc(N(C)C)sc5c4)n3)nc2)CC1 [YK-2-69]
- remaining activity at 1 µM [1]: 121%
- remaining activity at 1 µM [2]: 100%
- remaining activity at 1 µM [3]: 85.3%
- remaining activity at 1 µM [4]: 103%
- remaining activity at 1 µM [5]: 85.9%
- remaining activity at 1 µM [6]: 90.4%
- % Enzyme Activity (relative to DMSO controls) [7]: 71.84% and 70.88%
- remaining activity at 1 µM [8]: 95.9%
- remaining activity at 1 µM [9]: 111%
- remaining activity at 1 µM [10]: 96%
- remaining activity at 1 µM [11]: 91.8%
- remaining activity at 1 µM [12]: 160%
- remaining activity at 1 µM [13]: 93.9%
- remaining activity at 1 µM [14]: 78.7%
- remaining activity at 1 µM [15]: 65.5%
- remaining activity at 1 µM [16]: 80.7%
- remaining activity at 1 µM [17]: 89.2%
- remaining activity at 1 µM [18]: 77%
- % Enzyme Activity (relative to DMSO controls) [19]: 84.96% and 83.74%
- remaining activity at 1 µM [20]: 84.3%
- remaining activity at 1 µM [21]: 91.4%
